Literature values as cited in US20230173296A1, “INTRACAVITARY PHOTODYNAMIC THERAPY” (Simphotek, Inc., priority 2020, published 2023).
Read-outs that look alike come from different tables or passages of the source. Values belong to the molecule of their own block, whether it stands above or below them.

How the values were obtained:
[1] = tested on: Human prostate; conditions: Davidson et. al., 2009
[2] = tested on: tumors in mice; conditions: Qiu et. al., 2016
[3] = tested on: cancer in mice; conditions: I-PDT, Shafirstein et. al., 2018
[4] = tested on: cancer in rabbits; conditions: I-PDT, Shafirstein et. al., 2018

Molecule: CC[C@H]1c2cc3[n-]c4c(c3C)C(=O)[C@H](C(=O)OC)c4c3nc(cc4[n-]c(cc(n2)[C@@H]1C)c(C(C)=O)c4C)[C@@H](C)[C@@H]3CCC(=O)O.[Pd+2] [TOOKAD]
Threshold Light Dose [1]: >23 (Davidson et. al., 2009) J/cm^2

ε, PS extinction coefficient (650 nm): mTHPC (650 nm): 0.048 cm^−1 μM^−1
Molecule: Oc1cccc(-c2c3nc(c(-c4cccc(O)c4)c4ccc([nH]4)c(-c4cccc(O)c4)c4nc(c(-c5cccc(O)c5)c5ccc2[nH]5)CC4)C=C3)c1 [mTHPC]

ε, PS extinction coefficient (630 nm): Photofrin (630 nm): 0.0035 cm^−1 μM^−1
Molecule: Photofrin
Threshold [^1O2]dose [2]: >1.0 (Qiu et. al., 2016) mM
Threshold Light Dose Rate ϕT [3]: 8.4 (Shafirstein et. al., 2018) mW/cm^2
Threshold Light Dose Rate ϕT [4]: 16.5 (Shafirstein et. al., 2018) mW/cm^2

ε, PS extinction coefficient (690 nm): BPD (690 nm): 0.0783 cm^−1 μM^−1
Molecule: benzoporphyrin derivative monoacid ring A [BPD]
